Assay: Minimum film formation temperature (MFFT) of AquaCoat ECD-30 suspensions, MFFT-bar model 90
Type: physicochemical
Conditions: added at 9% by weight based on ethylcellulose solids
Description: The MFFT of such suspensions was tested with MFFT-bar model 90. The MFFT bar was preset and the desired temperature range was selected depending on predicted MFFT value. Ranges 3 (5° C. to 18° C.), 4 (15° C.-33° C.) or range 5 (23° C. to 50° C.) were used in this study. The formulation was applied using a 400 micron cube applicator from warm side to cold side, and the MFFT value was read after the film was formed.
Such compounds were added at a rate of 9% by weight (based on weight of ethylcellulose solids). The compounds evaluated were PGDL (propylene glycol dilaurate; HLB 2)), GMC (glyceryl monocaprylate, HLB 8.3), GML (glyceryl monooleate, HLB 2.8) and TGDS (triglycerol diisosterarate HLB 10-13). […] Sticky residue was found in the formulation even after mixing for extended time. The film on the MFFT bar was not smooth or transparent.

Molecule | Compatibility with the formulation | Effect on MFFT of the formulation
triglycerol diisosterarate [TGDS] | didn't have good compatibility with the formulation | –
CCCCCCCCCCCC(=O)OCC(C)OC(=O)CCCCCCCCCCC (stereo not drawn) [PGDL, propylene glycol dilaurate] | – | didn't effectively decrease the MFFT
CCCCCCCC(=O)OCC(O)CO (stereo not drawn) [GMC, glyceryl monocaprylate] | didn't have good compatibility with the formulation | –

Source: patent US20230072225A1, “CONTROLLED RELEASE COMPOSITION AND METHOD” (DUPONT NUTRITION USA, INC., priority 2014, published 2023)
